{
  "source": "patent US20100221356A1",
  "about": "“PHARMACEUTICAL COMPOSITION FOR ONCE A DAY ADMINISTRATION OF TROSPIUM CHLORIDE” (SUPERNUS PHARMACEUTICALS, INC., priority 2003, published 2010)",
  "origin": "cited, not measured here",
  "key": {"[1]": {"settings": "water"}, "[2]": {"settings": "40 mg immediate release dose once daily compared to 20 mg given twice daily"}},
  "data": [
    {"smiles": "O=C(O[C@H]1C[C@H]2CC[C@@H](C1)[N+]21CCCC1)C(O)(c1ccccc1)c1ccccc1", "note": "[Trospium chloride]", "values": [
      {"measurement": "oral bioavailability", "setting": "oral", "value": "approximately 10%"},
      {"measurement": "oral bioavailability with the intake of high-fat food", "setting": "oral, high-fat food", "value": "significantly reduced"},
      {"measurement": "time to maximum blood level", "setting": "orally administered", "value": "5 to 6", "unit": "h"},
      {"measurement": "saturation solubility", "setting": "[1]", "value": 500, "unit": "mg/mL"},
      {"measurement": "overall incidence of adverse events", "setting": "[2]", "value": "higher overall incidence of adverse events"}
    ]}
  ]
}
